# Laboratory results from patent US20260356834A1, “ANTICONVULSIVE COMPOUNDS AND USES THEREOF” (Jazz Pharmaceuticals Research UK Limite, priority 2023, published 2026).
# Marks after values point to notes of the source that are not given here.
# Tested on: DBA/2 mice
# Assay: mouse audiogenic seizure test
# Assay type: in vivo
# Conditions: for Clonic convulsion - presence, Total / Tonic convulsion - presence, Total / Wild running - presence, Total: number of mice, n = 10
# Excerpt: The Audiogenic Seizure Test, which detects anticonvulsant activity, follows that described by Durmüller et al., 1993. Mice of the DBA/2 strain undergo an age-dependent sequence of convulsions (wild-running, clonic convulsion, tonic convulsion and respiratory arrest) within 60 seconds of exposure to a loud sound of 110-120 dB. The type of convulsions are consistent with aspects of generalised seizure in humans.
# Male DBA/2 mice (3-4 weeks old) were supplied by Janvier Labs (53940 Le Genest-Saint-Isle, France); weight range 6-13 g at the beginning of the experiment. Animals were acclimatized to the Test Facility for 1 day after delivery and randomly housed in groups of 5 in macrolon cages on wood litter with free access to food and water.
# The animal house was maintained under artificial lighting (12 hours) between 7:00 and 19:00 in a controlled ambient temperature of 22±2 °C and relative humidity between 30-70%.
# Mice were individually transferred (at 3-5 minutes intervals) from the preparation room into an adjacent experimental room and body temperature was measured using a rectal thermometer (Digital Laboratory Thermometer: Model BAT-12). Immediately after, they were placed in a Plexiglas jar (Diameter=40 cm; Height=35 cm) mounted with an electric bell (110-120 dB, supplier Leroy Merlin, France). Upon activating the bell, the occurrences and latencies to wild running fits, clonic and tonic seizures were measured. Deaths were also recorded. The bell was activated until a tonic seizure occurred, or for a maximum of 60 seconds.
# The experiment included groups of 10 mice per group. Experimenters were only partially blinded to treatment group as pre-treatment times were different.
# The test substance was evaluated at various doses, administered i.p. (10 ml/kg) 15 or 30 minutes before the test, and compared with a vehicle control group.
# Due to the number of animals tested, the experiment was divided in 2 sub-experiments on 2 separate days (7 days apart) with 5 mice per group in each sub-experiment.
# Data were tested for normality using d'Agostino-Pearson Test and found to not follow a normal distribution. Statistical outliers were not identified or removed because no behavioural outliers were identified. Quantitative data (latencies) with the test substance were analyzed by comparing treated groups with vehicle control using Kruskal-Wallis test followed by Dunn's multiple comparisons test. Quantitative data with the reference substance were analyzed using Mann-Whitney U test. Quantal data (frequencies) were analyzed by comparing treated groups with vehicle control using Fisher's Exact Probability test.
smiles,measurement,setting,value
"CCCc1cc(O)c(-c2c(C)ccn3ccnc23)c(O)c1 [Compound 2, 2-(7-Methylimidazo[1,2-a]pyridin-8-yl)-5-propylbenzene-1,3-diol]",latency to tonic convulsions (significance in words),3 mg/kg i.p. vs vehicle,no significant differences
same,"Clonic convulsion - latency, Change from vehicle","3 mg/kg i.p., 30 min",+10%
same,"Clonic convulsion - presence, Change from vehicle","3 mg/kg i.p., 30 min",+25%
same,"Tonic convulsion - latency, Change from vehicle","3 mg/kg i.p., 30 min",+23%
same,"Tonic convulsion - presence, Change from vehicle","3 mg/kg i.p., 30 min",+14%
same,"Wild running - latency, Change from vehicle","3 mg/kg i.p., 30 min",+16%
same,"Wild running - presence, Change from vehicle","3 mg/kg i.p., 30 min",+11%
same,"Clonic convulsion - presence, Total","3 mg/kg i.p., 30 min",10
same,"Tonic convulsion - presence, Total","3 mg/kg i.p., 30 min",8
same,"Wild running - presence, Total","3 mg/kg i.p., 30 min",10
same,latency to tonic convulsions (significance in words),10 mg/kg i.p. vs vehicle,significantly increased
same,"Clonic convulsion - latency, Change from vehicle","10 mg/kg i.p., 30 min",+44%
same,"Clonic convulsion - presence, Change from vehicle","10 mg/kg i.p., 30 min",−13%
same,"Tonic convulsion - latency, Change from vehicle","10 mg/kg i.p., 30 min",+400%*
same,"Tonic convulsion - presence, Change from vehicle","10 mg/kg i.p., 30 min",−57%
same,"Wild running - latency, Change from vehicle","10 mg/kg i.p., 30 min",+27%
same,"Wild running - presence, Change from vehicle","10 mg/kg i.p., 30 min",−11%
same,"Clonic convulsion - presence, Total","10 mg/kg i.p., 30 min",7
same,"Tonic convulsion - presence, Total","10 mg/kg i.p., 30 min",3
same,"Wild running - presence, Total","10 mg/kg i.p., 30 min",8
same,latency to clonic convulsions (significance in words),30 mg/kg i.p. vs vehicle,significantly increased
same,latency to tonic convulsions (significance in words),30 mg/kg i.p. vs vehicle,significantly increased
same,latency to wild running (significance in words),30 mg/kg i.p. vs vehicle,significantly increased
same,"Clonic convulsion - latency, Change from vehicle","30 mg/kg i.p., 15 min",+574%**
same,"Tonic convulsion - latency, Change from vehicle","30 mg/kg i.p., 15 min",+400%**
same,"Wild running - latency, Change from vehicle","30 mg/kg i.p., 15 min",+1076%***
same,"Clonic convulsion - presence, Total","30 mg/kg i.p., 15 min",2
same,"Tonic convulsion - presence, Total","30 mg/kg i.p., 15 min",0
same,"Wild running - presence, Total","30 mg/kg i.p., 15 min",2
same,latency to clonic convulsions (significance in words),3 and 10 mg/kg i.p. vs vehicle,no significant differences
same,latency to wild running (significance in words),3 and 10 mg/kg i.p. vs vehicle,no significant differences
same,number of mice displaying clonic convulsions (significance in words),3 or 10 mg/kg i.p.,no significant differences
same,number of mice displaying tonic convulsions (significance in words),3 or 10 mg/kg i.p.,no significant differences
same,number of mice displaying wild running (significance in words),3 or 10 mg/kg i.p.,no significant differences
"CCCc1cc(O)c(-c2c(C)c(Cl)cn3ccnc23)c(O)c1 [Compound 4, 2-(6-Chloro-7-methylimidazo[1,2-a]pyridin-8-yl)-5-propylbenzene-1,3-diol]","Clonic convulsion - latency, Change from vehicle","3 mg/kg i.p., 30 min",−5%
same,"Clonic convulsion - presence, %","3 mg/kg i.p., 30 min",100%
same,"Clonic convulsion - presence, Change from vehicle","3 mg/kg i.p., 30 min",0%
same,"Tonic convulsion - latency, Change from vehicle","3 mg/kg i.p., 30 min",+6%
same,"Tonic convulsion - presence, %","3 mg/kg i.p., 30 min",90%
same,"Tonic convulsion - presence, Change from vehicle","3 mg/kg i.p., 30 min",−10%
same,"Wild running - latency, Change from vehicle","3 mg/kg i.p., 30 min",−2%
same,"Wild running - presence, %","3 mg/kg i.p., 30 min",100%
same,"Wild running - presence, Change from vehicle","3 mg/kg i.p., 30 min",0%
same,"Clonic convulsion - latency, Change from vehicle","10 mg/kg i.p., 30 min",+5%
same,"Clonic convulsion - presence, %","10 mg/kg i.p., 30 min",90%
same,"Clonic convulsion - presence, Change from vehicle","10 mg/kg i.p., 30 min",−10%
same,"Tonic convulsion - latency, Change from vehicle","10 mg/kg i.p., 30 min",+24%
same,"Tonic convulsion - presence, %","10 mg/kg i.p., 30 min",70%
same,"Tonic convulsion - presence, Change from vehicle","10 mg/kg i.p., 30 min",−30%
same,"Wild running - latency, Change from vehicle","10 mg/kg i.p., 30 min",+4%
same,"Wild running - presence, %","10 mg/kg i.p., 30 min",100%
same,"Wild running - presence, Change from vehicle","10 mg/kg i.p., 30 min",0%
same,latency to clonic convulsions (significance in words),30 mg/kg i.p. vs vehicle,significantly increased
same,latency to tonic convulsions (significance in words),30 mg/kg i.p. vs vehicle,significantly increased
same,latency to wild running (significance in words),30 mg/kg i.p. vs vehicle,significantly increased
same,"Clonic convulsion - latency, Change from vehicle","30 mg/kg i.p., 15 min",+368%**
same,"Clonic convulsion - presence, %","30 mg/kg i.p., 15 min",70%
same,"Clonic convulsion - presence, Change from vehicle","30 mg/kg i.p., 15 min",−30%
same,"Tonic convulsion - latency, Change from vehicle","30 mg/kg i.p., 15 min",+426%***
same,"Tonic convulsion - presence, %","30 mg/kg i.p., 15 min",10%
same,"Wild running - latency, Change from vehicle","30 mg/kg i.p., 15 min",+608%**
same,"Wild running - presence, %","30 mg/kg i.p., 15 min",70%
same,"Wild running - presence, Change from vehicle","30 mg/kg i.p., 15 min",−30%
same,latency to clonic convulsions (significance in words),60 mg/kg i.p. vs vehicle,significantly increased
same,latency to tonic convulsions (significance in words),60 mg/kg i.p. vs vehicle,significantly increased
same,latency to wild running (significance in words),60 mg/kg i.p. vs vehicle,significantly increased
same,"Clonic convulsion - latency, Change from vehicle","60 mg/kg i.p., 30 min, n = 9",+614%***
same,"Clonic convulsion - presence, %","60 mg/kg i.p., 30 min, n = 9",11%
same,"Tonic convulsion - latency, Change from vehicle","60 mg/kg i.p., 30 min, n = 9",+426%***
same,"Tonic convulsion - presence, %","60 mg/kg i.p., 30 min, n = 9",0%
same,"Wild running - latency, Change from vehicle","60 mg/kg i.p., 30 min, n = 9",+1150%***
same,"Wild running - presence, %","60 mg/kg i.p., 30 min, n = 9",22%
same,number of mice displaying clonic convulsions (significance in words),"3, 10 or 30 mg/kg i.p.",no significant differences
same,number of mice displaying wild running (significance in words),"3, 10 or 30 mg/kg i.p.",no significant differences
same,latency to clonic convulsions (significance in words),3 and 10 mg/kg i.p. vs vehicle,no significant differences
same,latency to wild running (significance in words),3 and 10 mg/kg i.p. vs vehicle,no significant differences
same,number of mice displaying tonic convulsions (significance in words),3 or 10 mg/kg i.p.,no significant differences
same,latency to tonic convulsions (significance in words),3 or 10 mg/kg i.p. vs vehicle,no significant differences
